{
  "source": "patent US20180318291A1",
  "about": "“USE OF AMINOTHIAZOLE MYD88 SPECIFIC INHIBITOR TJM2010-5” (WUHAN INNAMUNE PHARMACEUTICAL INC. LTD., priority 2015, published 2018)",
  "type_in_all_cases": "in vivo",
  "key": {"[1]": {"tested_on": "C57bl/6 mice", "assay": "BLM (bleomycin) pulmonary inflammation model", "protocol": "1. Animal grouping: C57bl/6(B6) NaCl (200 μl nasal drip) group, C57bl/6 (B6) BLM group and TJM2010-5BLM group (provide intraperitoneal injection of TJM2010-5 dissolved in 0.5% CMC of 150 mg/kg/d on day 0-3, 5, 7, 9, 11, 13, 15).\n2. Construct pulmonary inflammation model with BLM (bleomycin) nasal drips: conduct airway anesthesia with 40 μl of ketaminexylazine, and administrate BLM sulfate by nasal dripping (300 μg or 15 mg/kg).\n3. Collect cell and cytokines with bronchoalveolar lavage fluid (BAL): Cut open the trachea and insert the plastic sleeve; then lavage with 0.3 ml of PBS at 37° C., and withdraw the lavage fluid (the withdrawn fluid is more than 95%), and repeat the process for 10 times. The lavage fluid consists of two parts: one part is used for detection of cytokins (600 g, conduct centrifugation for 10 min, collect and store the supernatant at −80° C. for detection); the other part is used for cell counting (0.4 ml, including substratum, suspension), count at 4° C.\n4. Detect cells and factors in tissue with pulmonary homogenate: After BAL, take and grind the whole lung, and conduct centrifugation to take supernatant, then, store it at −80 C° for detection of MPO.\n5. Conduct activity detection of pulmonary MPO: Completely lavage the lung with saline passing through right heart, and take pulmonary tissue homogenate, then conduct centrifugation to take supernatant. After that, suspend and precipitate it with 1 ml of PBS (including 0.5% of HTAB, 5 mM of EDTA). Conduct centrifugation, add 50 μl of supernatant into tube (200 μl of PBS-HTAB-EDTA, 2 ml of HBSS, 100 μl of o-dianisidine dihydrochloride (1.25 mg/ml), 100 μl of H2O2 0.05%), and put it into vortex water tank at 37° C. for 15 min. Then, stop the reaction with 100 μl of NaN3 1%, and detect the MPO absorption value with 460 nm.\n6. Conduct cell counting: Dye with MG-1L for 4 min, and dye with 95% of GS-500 for 8 min. Then, make smear to count cells.\n7. Conduct factor detection: detect the level of IL-6 with ELISA."}, "[2]": {"tested_on": "Balb/c mice", "assay": "AOM/DSS chronic colitis and colitis-associated colorectal cancer (CAC) model", "protocol": "Construct the chronic colitis and colitis-associated colorectal cancer (CAC) model: apply intraperitoneal injection of 10 mg/Kg azoxymethane (AOM) (Sigma-Aldrich Chemical) to 40Balb/c mice, and start to execute three cycles of feeding of drinking water containing 2.5% of dextran sodium sulfate (DSS) (MP Biomedicals) 7 days later, and each cycle consists one week of feeding DSS water and two weeks of feeding common fresh water. Then, observe them in the following 10 weeks. […] 100% of mice in this group have colorectal cancer.\nTJM2010-5 treatment group: Provide intragastric administration of TJM2010-5 of 50 mg/kg to 20 Balb/c mice in two days before providing the treatment mentioned above, and observe them in ten weeks.\nMechanism study: Take the specimen of serum, colon, and spleen etc. from 4 mice in each group 2 weeks and 7 weeks later to detect the infiltration of IRAK4 and inflammatory cytokines, macrophage and Gr-1^highCD11b^high MDSC, and the proportion of LPMCs (lamina propria mononuclearcells) F4/80^+CD11b^+ macrophage etc.\nThe experimental procedure is the same with that of the experiment on effect of TJM2010-5 in preventing and treating colitis and colorectal cancer: Apply intragastric administration of TJM2010-1, TJM2010-2, TJM2010-3, TJM2010-4, TJM2010-5 of 50 mg/kg to 20 Balb/c mice in each group of totally 6 groups, and then, observe them in the following 10 weeks. The mice with colitis and colorectal cancer in the group corresponding to TJM2010-5 and TJM2010-1, TJM2010-2, TJM2010-3, TJM2010-4, TJM2010-5 accounts 0%, 71.52%, 42.28%, 60.19%, 81.34% respectively; 2. TJM2010-5 can 100% prevent and cure chronic colitis and prevent the colorectal cancer incurred by chronic colitis. […] Other aminothiazole compound has no or little such curative effect."}, "[3]": {"tested_on": "mice with pyohemia", "assay": "pyohemia / septicopyemia lethal experiment (cecal ligation and puncture)", "settings": "CLP; 250 mg/kg intragastric 4 times every 12 h; FIG. 15(b)", "protocol": "Part two: Observe the effect of MyD88 inhibitor on mortality of mice with pyohemia. The mice will be randomly divided into: sham-operation group, model group, MyD88 inhibitor treatment group. Except for the mice in sham-operation group that only receive post-operative suture, the mice in pyohemia model group and MyD88 inhibitor treatment group are provided with the cecal ligation and puncture (CLP), to copy the pyohemia mice model. At 1 h after operation, apply intragastric administration of 0.5% CMC 200 μL or TJM2010-5 of 250 mg/kg (200 μL) for 4 times successively, and each time lasts for 12 h. After operation, observe the survival rate of mice in each group every 12 h, and for 72 h successively."}},
  "data": [
    {"smiles": "O=C(CCN1CCN(Cc2ccccc2)CC1)Nc1nc(-c2ccccc2)cs1", "note": "[TJM2010-5, 3-(4-benzylpiperazin-1-yl)-N-(4-phenylthiazol-2-yl) propanamide]", "values": [
      {"measurement": "recruitment of bronchialveolar neutrophile granulocyte", "setting": "[1]; 150 mg/kg/d intraperitoneal, FIG. 10b", "result": "reduces significantly"},
      {"measurement": "level of IL-6 in lung tissue", "setting": "[1]; at 24 h, FIG. 11b", "result": "reduces"},
      {"measurement": "total cell numbers in bronchial alveolar vs WT mice", "setting": "[1]; day 1, 7, 11, FIG. 10a", "result": "statistical differences"},
      {"measurement": "MPO factor in lung tissue", "setting": "[1]; detection on day 7, FIG. 11a", "result": "reduced"},
      {"measurement": "colitis finding", "setting": "[2]; 50 mg/kg intragastric", "result": "No apparent colitis"},
      {"measurement": "mice with colitis and colorectal cancer", "setting": "[2]; 50 mg/kg intragastric, 20 Balb/c mice per group, observed 10 weeks", "result": 0, "unit": "%"},
      {"measurement": "weights vs untreated group", "setting": "[2]; 50 mg/kg intragastric, FIG. 12A", "result": "obviously higher than that of untreated group"},
      {"measurement": "survival rate vs control group", "setting": "[2]; 50 mg/kg intragastric, FIG. 12B", "result": "obviously higher than that of control group"},
      {"measurement": "mice having colitis and colorectal cancer", "setting": "[2]; FIG. 12C", "result": "no mice"},
      {"measurement": "activation of IRAK4", "setting": "[2]; FIG. 13A", "result": "inhibit"},
      {"measurement": "p-IRAK4", "setting": "[2]; FIG. 13A", "result": "reduce"},
      {"measurement": "activation of NF-κB p65", "setting": "[2]; FIG. 13B", "result": "inhibit"},
      {"measurement": "generation of G-CSF vs control group", "setting": "[2]; FIG. 13C", "result": "obviously lower than those of control group"},
      {"measurement": "generation of IL-6 vs control group", "setting": "[2]; FIG. 13C", "result": "obviously lower than those of control group"},
      {"measurement": "generation of MIP-1β vs control group", "setting": "[2]; FIG. 13C", "result": "obviously lower than those of control group"},
      {"measurement": "generation of TGF-β1 vs control group", "setting": "[2]; FIG. 13C", "result": "obviously lower than those of control group"},
      {"measurement": "generation of TNF-α vs control group", "setting": "[2]; FIG. 13C", "result": "obviously lower than those of control group"},
      {"measurement": "level of IL-6 mRNA vs control group", "setting": "[2]; FIG. 13D", "result": "obviously lower than those of control group"},
      {"measurement": "level of TGF-β1 mRNA vs control group", "setting": "[2]; FIG. 13D", "result": "obviously lower than those of control group"},
      {"measurement": "infiltration of macrophage", "setting": "[2]; FIG. 14", "result": "reduce"},
      {"measurement": "F4/80+CD11b+ tumor-associated macrophage in LPMCs", "setting": "[2]; FIG. 14B", "result": "reduces"},
      {"measurement": "infiltration of Gr-1highCD11bhigh MDSC (myeloid suppressor cells)", "setting": "[2]; FIG. 14C", "result": "reduce"},
      {"measurement": "expression of IL-6", "setting": "[2]; FIG. 14D", "result": "reduce"},
      {"measurement": "prevention and cure of chronic colitis and prevention of colorectal cancer", "setting": "[2]; intragastric", "result": 100, "unit": "%"},
      {"measurement": "death time and final mortality of pyohemia in mice", "setting": "[3]", "result": "significantly improve"}
    ]}
  ]
}
